Experimental data published in paper PMC12441843 (ACS pharmacology & translational science, 2025).
Where “and” joins values, the source holds several entries; their conditions need not be identical. Equal values may be shown once. Read-outs that look alike come from different tables or passages of the source.

Legend:
[1] = test system: senescent lung fibroblasts; experiment: Cleaved caspase-3 (CCasp3) immunocytochemistry in senescent lung fibroblasts; format: cell-based, human; conditions: for concentration above which senolytic effects were displayed: CCasp3 dose-response; for Senolytic window (EC50pro/EC50sen): ratio of proliferating to senescent fibroblast EC50
[2] = Plasma stability assay, mouse plasma; format: in vitro ADME
[3] = Plasma stability assay, human plasma; format: in vitro ADME
[4] = test system: proliferating lung fibroblasts; experiment: Cleaved caspase-3 (CCasp3) immunocytochemistry in proliferating lung fibroblasts; format: cell-based, human
[5] = test system: precision-cut lung slices from bleomycin-injured aged mouse lungs; experiment: Precision-cut lung slices (PCLS) from aged mice +/- bleomycin, qPCR; conditions: 72 hours ex vivo; for Col1a1 expression in PCLS: Nintedanib 1.0μM, vs. vehicle
[6] = test system: bleomycin-induced lung fibrosis; experiment: Bleomycin model in young Col1a2-mTmG mice, FACS-sorted fibroblasts and epithelial cells, qPCR; format: in vivo, mouse
[7] = Mouse liver microsomal stability; format: in vitro ADME; conditions: mouse liver microsomes, 1 μM
[8] = Plasma levels following oral delivery of F-4N; format: in vivo; conditions: both sexes, mouse, 30 mg/kg
[9] = test system: bleomycin-induced lung fibrosis in aged mice; experiment: Bleomycin-induced model of lung fibrosis in aged mice; format: in vivo, mouse
[10] = test system: repeated bleomycin-induced lung fibrosis; experiment: Repeated bleomycin-induced model of lung fibrosis; format: in vivo, mouse; conditions: 10mg/kg daily i.p. for two weeks
[11] = test system: senescent lung fibroblasts; experiment: Annexin V / Propidium Iodide flow cytometry, senescent fibroblasts; format: cell-based, human; conditions: 72 hours, F-4N 3.0 μM
[12] = test system: proliferating lung fibroblasts; experiment: Annexin V / Propidium Iodide flow cytometry, proliferating fibroblasts; format: cell-based, human; conditions: 72 hours, F-4N 3.0 μM
[13] = test system: mice with bleomycin induced lung fibrosis; experiment: Oral dose-finding study with F-4N in bleomycin mice (body mass, lung cytokine transcripts); format: in vivo, mouse
[14] = senescent vs. proliferating fibroblasts, 72 hours
[15] = Homo sapiens, Fibroblast, 72 h, read-out: Senescent fibroblast apoptosis EC50
[16] = Homo sapiens, Fibroblast, 72 h, read-out: Proliferating fibroblast apoptosis EC50, cleaved caspase-3 staining, 72 hours, low passage human lung fibroblasts
[17] = read-out: Proliferating fibroblast apoptosis EC50, cleaved caspase-3 staining, 72 hours, low passage human lung fibroblasts
[18] = F-4N 3µM, ABT-263 5.0µM, ABT-199 3µM
[19] = 10 mg/kg i.p. daily days 14-28, vs. vehicle

With O=c1c(O)c(-c2ccc(O)c(O)c2)oc2cc(O)ccc12 [fisetin, reference compound] the “concentration above which senolytic effects were displayed” value [1, 14] was “above 30 μM”.

For O=c1c(O)c(-c2ccc(O)c(O)c2)oc2cc(O)cc(O)c12 [quercetin, reference compound], the “concentration above which senolytic effects were displayed” value [1, 14] was “above 30 μM”, the EC50 [1, 15] was > 30 µM and the half-life at 1 μM [2] was ~30 min. For the same compound, the half-life at 1 μM [3] was ~30 min.

For O=c1c(O)c(-c2ccc(OCc3ccccc3)cc2)oc2ccccc12 [Compound F-20], the EC50 [1, 15] was 1.5 µM, the “Senolytic window (EC50pro/EC50sen)” value [1] was 18.4 and the EC50 [4, 16] was 27.6 µM.

In the case of COC(=O)c1ccc2c(c1)NC(=O)/C2=C(\Nc1ccc(N(C)C(=O)CN2CCN(C)CC2)cc1)c1ccccc1 [nintedanib, reference compound], the “Col1a1 expression in PCLS” value ([5]; F-19 10μM) is reported as “reduced expression of Col1a1”.

In the case of O=c1c(O)c(-c2ccc(OCc3ccccn3)cc2)oc2ccccc12 [Compound F-2N], the EC50 [1, 15] is reported as 21.8 µM, the “Senolytic window (EC50pro/EC50sen)” value [1] is reported as 1.4 and the EC50 [4, 16] is reported as 29.8 µM.

CN(C)CC[C@H](CSc1ccccc1)Nc1ccc(S(=O)(=O)NC(=O)c2ccc(N3CCN(Cc4ccccc4-c4ccc(Cl)cc4)CC3)cc2)cc1[N+](=O)[O-] [ABT-737, reference compound] gave an EC50 [1, 15] of 0.7 µM and an EC50 [4, 16] of 9.7 µM.

In the case of CC1(C)CCC(CN2CCN(c3ccc(C(=O)NS(=O)(=O)c4ccc(NCC5CCOCC5)c([N+](=O)[O-])c4)c(Oc4cnc5[nH]ccc5c4)c3)CC2)=C(c2ccc(Cl)cc2)C1 [ABT-199, venetoclax, reference compound], the EC50 [1, 15] is reported as 3.2 µM, the “Senolytic window (EC50pro/EC50sen)” value [1] is reported as 23.9 and the EC50 [4, 16] is reported as 76.5 µM.

With O=c1c(O)c(-c2ccc(OCc3cccnc3)cc2)oc2ccccc12 [Compound F-3N] the EC50 [1, 15] was 11.2 µM, the “Senolytic window (EC50pro/EC50sen)” value [1] was 1.3 and the EC50 [4, 16] was 14.9 µM.

With CC1(C)CCC(c2ccc(Cl)cc2)=C(CN2CCN(c3ccc(C(=O)NS(=O)(=O)c4ccc(N[C@H](CCN5CCOCC5)CSc5ccccc5)c(S(=O)(=O)C(F)(F)F)c4)cc3)CC2)C1 [ABT-263, navitoclax, reference compound] the EC50 [1, 15] was 1.9 µM, the “Senolytic window (EC50pro/EC50sen)” value [1] was 7.8 and the EC50 [4, 16] was 14.9 µM.

For CCOc1ccc(-c2oc3ccccc3c(=O)c2O)cc1 [Compound F-19], the “more potent than the natural products Q or F” value [1] was 10 fold, the “ranking in follow-up dose-response of the commercial flavonol library” value ([1]; CCasp3, senescent and proliferating lung fibroblasts) was “most potent and selective senolytics” and the EC50 [1, 15] was 2.4 µM. For the same compound, the “Senolytic window (EC50pro/EC50sen)” value [1] was 10.2, the EC50 [4, 16] was 25 µM and the EC50 [4, 17] was 24.5 µM. The “expression of Sftpc and Hopx (mature alveolar epithelium) in PCLS” value ([5]; F-19 10μM) was “increased expression”, the “Col1a1 expression in PCLS” value ([5]; F-19 10μM) was “reduced expression of Col1a1” and the “expression of senescence-associated markers Cdkn2a, Cdkn1a, Il6 in PCLS” value ([5]; F-19 10μM, vs. vehicle- and nintedanib-treated) was “significantly reduced expression”. For the same compound, the “expression of TNF-α in fibroblasts and epithelial cells” value ([6]; 10 mg/kg i.p. daily for 4 days) was “did not alter expression”, the “expression of pathological markers of lung fibrosis (ECM genes, senescence-associated soluble factors, aberrant basaloid markers)” value ([6]; 10 mg/kg i.p. daily for 4 days) was “normalized expression” and the “expression of Cdkn2a (p16) and Cdkn1a (p21) in fibroblasts and epithelial cells” value ([6]; 10 mg/kg i.p. daily for 4 days from day 10 after bleomycin, vs. vehicle) was “significantly reduced expression”. For the same compound, the “expression of alveolar epithelial ATII, ATII/ATI and ATI markers” value ([6]; 10 mg/kg i.p. daily for 4 days, vs. vehicle) was “elevated expression”.

In the case of O=c1c(O)c(-c2ccc(OCc3ccncc3)cc2)oc2ccccc12 [Compound F-4N], the “greater senolytic potency in vitro compared to fisetin or quercetin” value [1] is reported as ~ 50 X, the EC50 [1, 15] is reported as 0.8 µM and the EC50 ([1]; Homo sapiens, Fibroblast, read-out: EC50 (senolytic potency, CCasp3 assay)) is reported as 0.9 µM. The IC50 ([1]; Homo sapiens, Fibroblast, read-out: defined in vitro IC50) was 0.9 µM, the “Senolytic window (EC50pro/EC50sen)” value [1] was 61.1 and the “cleaved caspase-3 expression in senescent fibroblasts derived from multiple stimuli” value ([1]; senescence by replication, radiation, etoposide or bleomycin, 72 hours, F-4N 3µM) was “induces cleaved caspase-3 expression”. The “senolytic window (selective)” value ([1]; senescent vs. proliferating fibroblasts) was 61.1 fold, the EC50 [4, 16] was 48.9 µM and the half-life at 1 μM [2] was > 120 min. The half-life at 1 μM [3] was > 120 min, the “microsomal half-life relative to quercetin” value [7] was > 3 fold and the concentration at 2 h [8] was 561 ng/mL and 1.62 µM. The “markers indicative of alveolar regeneration in PCLS” value [5, 18] was “stimulated expression of markers indicative of alveolar regeneration”, the “senescence associated markers in PCLS” value [5, 18] was “supported reductions in senescence associated markers” and the “plasma levels of IL-6” value ([9]; 10 mg/kg i.p. daily days 14-28) was “nearly complete normalization”. For the same compound, the “lung collagen content (hydroxyproline)” value [9, 19] was “nearly complete resolution of lung collagen content”, the mouse survival [9, 19] was “improvement in mouse survival” and the “whole lung expression of ECM and senescence-associated transcripts” value [9, 19] was “significantly lower expression”. The “whole lung markers associated with alveolar regeneration and repair” value [9, 19] was “significantly elevated”, the “expression of aberrant basaloid/intermediate epithelial markers Snf, Cldn4, Krt19, Mmp7” value [10] was “repressing expression” and the “expression of mature alveolar epithelial markers Hopx, Ager, Sftpa1, Sftpc” value [10] was “enhanced expression”. For the same compound, the “body mass, lung architecture, collagen content, whole lung gene expression” value ([10]; vs. vehicle) was “features consistent with resolution”, the “apoptosis (Annexin V / Propidium Iodide)” value [11] was “selective apoptosis in senescent lung fibroblasts” and the “apoptosis (Annexin V / Propidium Iodide)” value [12] was “without an observable impact”. The bodyweight ([13]; 30mg/kg daily p.o. for one week) was “improvement in bodyweight” and the “minimum effective oral dose to impact expression of Infa2, Il6, Ccl19, Cxcl13, Tgfb2, Ltb” value ([13]; daily p.o. 7 days, whole lung qPCR) was 30 mg/kg.

With CCCOc1ccc(-c2oc3ccccc3c(=O)c2O)cc1 [F-19(Me)] the “Senolytic window (EC50pro/EC50sen)” value [1] was 5.7, the EC50 ([1]; read-out: Senescent fibroblast apoptosis EC50, cleaved caspase-3 staining, 72 hours, replicative senescent human lung fibroblasts) was 3.4 µM and the EC50 [4, 17] was 19.5 µM.
